Laboratory results from the supplement of paper PMC11451515.

Experiments:
Settings in all cases: 48 h
P12-Ichikawa [1] = assay: cell viability relative to DMSO control; higher = less cytotoxic
Method in brief: (§1)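 NOMO1 or SEM (500 cells/well) or P12-Ichikawa (1000 cells/well) leukemia cells were adapted for at least four passages in each medium. They were seeded in 1536-well plates (5 μl) and pin-dosed with library compounds in DMSO over an 11-point threefold series, 47 μM to 0.79 nM. CellTiter-Glo One luminescence was read after 48 h at 37°C. Viability is the per-plate percentage relative to DMSO wells, with cell-free wells as background.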

NOMO1 [2] = assay: as above
Method in brief: as §1

SEM cells [3] = assay: as above
Method in brief: as §1

P12-Ichikawa [4] = assay: AUC of viability dose-response curve (% viability x log10 dose units); higher = less sensitive
Method in brief: (§2)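 Library compounds in DMSO were applied for 48 h at 37°C at 11 threefold doses (47 μM to 0.79 nM) to medium-adapted leukemia cells in 1536-well plates holding 500 or 1000 cells/well. Luminescence from CellTiter-Glo One was normalised plate by plate against DMSO and cell-free wells. Area under the curve came from trapezoidal integration of a log-logistic fit, after scaling curves that rose above full viability and discarding those that failed quality control. The fit had four parameters and used log10 doses.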

NOMO1 [5] = assay: as above
Method in brief: as §2

SEM cells [6] = assay: as above
Method in brief: as §2

NC[C@H]1O[C@H](O[C@H]2[C@H](O)[C@@H](O[C@H]3O[C@H](CO)[C@@H](O)[C@H](N)[C@H]3O)[C@H](N)C[C@@H]2N)[C@H](N)C[C@@H]1O
cell viability [%]
Settings | NOMO1 [2] | P12-Ichikawa [1] | SEM cells [3]
HPLM + 10% dialyzed FBS, 0.000781 µM | 103 | 112 | 88.9
HPLM + 10% dialyzed FBS, 0.00234 µM | 99.1 | 98.8 | 95.3
HPLM + 10% dialyzed FBS, 0.00702 µM | 122 | 110 | 98.6
HPLM + 10% dialyzed FBS, 0.0211 µM | 92.5 | 106 | 108
HPLM + 10% dialyzed FBS, 0.0632 µM | 110 | 117 | 104
HPLM + 10% dialyzed FBS, 0.19 µM | 106 | 109 | 92.9
HPLM + 10% dialyzed FBS, 0.569 µM | 112 | 106 | 107
HPLM + 10% dialyzed FBS, 1.71 µM | 102 | 99.8 | 96.9
HPLM + 10% dialyzed FBS, 5.12 µM | 102 | 110 | 101
HPLM + 10% dialyzed FBS, 15.4 µM | 91.9 | 101 | 101
HPLM + 10% dialyzed FBS, 46.1 µM | 106 | 96.6 | 109
RPMI 5 mM glucose + 10% FBS, 0.000781 µM | 109 | 102 | 93.7
RPMI 5 mM glucose + 10% FBS, 0.00234 µM | 103 | 111 | 97.1
RPMI 5 mM glucose + 10% FBS, 0.00702 µM | 101 | 95.9 | 106
RPMI 5 mM glucose + 10% FBS, 0.0211 µM | 110 | 116 | 98.6
RPMI 5 mM glucose + 10% FBS, 0.0632 µM | 104 | 107 | 119
RPMI 5 mM glucose + 10% FBS, 0.19 µM | 103 | 106 | 109
RPMI 5 mM glucose + 10% FBS, 0.569 µM | 105 | 97.1 | 112
RPMI 5 mM glucose + 10% FBS, 1.71 µM | 94.6 | 85.9 | 95.6
RPMI 5 mM glucose + 10% FBS, 5.12 µM | 104 | 94 | 89
RPMI 5 mM glucose + 10% FBS, 15.4 µM | 101 | 98.5 | 100
RPMI 5 mM glucose + 10% FBS, 46.1 µM | 107 | 105 | 111
RPMI 5 mM glucose + 10% dialyzed FBS, 0.000781 µM | 95.3 | 110 | 105
RPMI 5 mM glucose + 10% dialyzed FBS, 0.00234 µM | 101 | 116 | 105
RPMI 5 mM glucose + 10% dialyzed FBS, 0.00702 µM | 95.2 | 117 | 118
RPMI 5 mM glucose + 10% dialyzed FBS, 0.0211 µM | 96 | 119 | 116
RPMI 5 mM glucose + 10% dialyzed FBS, 0.0632 µM | 96.6 | 112 | 107
RPMI 5 mM glucose + 10% dialyzed FBS, 0.19 µM | 99.7 | 88.5 | 108
RPMI 5 mM glucose + 10% dialyzed FBS, 0.569 µM | 94.3 | 79.7 | 110
RPMI 5 mM glucose + 10% dialyzed FBS, 1.71 µM | 89.7 | 91.6 | 104
RPMI 5 mM glucose + 10% dialyzed FBS, 5.12 µM | 81.7 | 91 | 112
RPMI 5 mM glucose + 10% dialyzed FBS, 15.4 µM | 97.2 | 94.6 | 103
RPMI 5 mM glucose + 10% dialyzed FBS, 46.1 µM | 93.4 | 117 | 111

AUC of viability dose-response curve
Settings | NOMO1 [5] | P12-Ichikawa [4] | SEM cells [6]
HPLM + 10% dialyzed FBS | 467 | 459 | 455
RPMI 5 mM glucose + 10% FBS | 467 | 455 | 470
RPMI 5 mM glucose + 10% dialyzed FBS | 452 | 413 | 469
